In patent publication US20130283404A1, “EPIGENETICS IN AUTOIMMUNITY” (The Regents of the University of Michigan, priority 2012, published 2013):

How the values were obtained:
Type in all cases: cell-based, human
[1] = tested on: miR-98/Let 7-f2 gene cluster; experiment: Methylation of regulatory regions 5' to the miR-98/Let 7-f2 gene cluster in CD4+ T cells; conditions: T cells from women but not men
Protocol: (§1) Genomic DNA from isolated CD4+ T cells (˜3×10^6), was extracted using Qiagen DNeasy Blood & Tissue Kit. 3-5 μg isolated DNA was sonicated to average of ˜500 bp with a Covaris DNA shearing system at UM sequencing core. Fragments were size-evaluated using an Agilent 2100 Bioanalyzer. Approximately 400 ng sonicated DNA was subjected to MeCAP experiments using Active Motif METHYLCOLLECTOR Ultra Kit according to the manufacturer's instructions. DNA fragments from the methylation-enriched fraction were purified using QIAquick PCR Purification Kit (Qiagen). MeCAP enriched and reference input samples were quantitated using quantitative real time PCR(RT-qPCR) with primers designed for specific regions flanking the putative transcription start site of the gene promoters. Differentially methylated regions between patient and normal healthy controls were identified by comparing % enrichment (relative to input) of the 500 bp window of methylated fragments.
Methylation of potential regulatory regions 5′ to the miR-98/Let 7-f2 gene cluster was compared in experimentally demethylated CD4 ? T cells from women relative to men, and in CD4 ? T cells from women with active lupus.

OGT [2] = experiment: OGT mRNA by RT-PCR in 5-azaC treated CD4+ T cells; conditions: 72 hours, restimulated with PMA and ionomycin, more in women than in men
Protocol: (§2) For in vitro demethylation assay, isolated CD4+ cells were cultured with 5 μM 5-AzaC for 72 hours. The cells were then treated (restimulated) or not with 5 ng/ml PMA and 500 ng/ml ionomycin or not for an additional 6 hr, and CD4+ cells were recovered and washed 2 times with PBS. Total RNA including miRNAs was isolated using miRNeasy kit (Qiagen) for miRNA and mRNA expression analysis. Genomic DNA was isolated using Qiagen DNeasy Blood & Tissue Kit. (Hewagama, 2009; Lu, 2007; Quddus, 1993; herein incorporated by reference in their entireties).
(§3) Up to 1000 ng total RNA from CD4+ T cells was transcribed into cDNA using Transcriptor First Strand cDNA synthesis kit (Roche) according to the manufacture's instruction. The cDNA was then subjected to real-time PCR using a Rotor-Gene 3000 thermocycler (Corbett). Roche (Basle) FastStart universal SYBR green master (Roche) mix containing 1 μl template cDNA and 0.5 μM forward and reverse primers in a total volume of 20 μl was annealed at 56° C. for a total of 40 cycles. The fold change of expression was calculated using ACTB and 18sRNA as internal reference genes.
(§4) The sex-specific differences in gene expression were confirmed in experimentally demethylated CD4+ T cells from an additional 9 pairs of healthy men and women. […] CD4+ T cells were then purified using magnetic beads, RNA isolated, and OGT and CXCR3 mRNA levels quantitated by RT-PCR. […]

[3] = tested on: CXCR3 regulatory elements; experiment: Methylcytosine affinity purification (MeCAP) of CXCR3 regulatory region in CD4+ T cells; conditions: CD4+ T cells from women
Protocol: as §1
(§5) The overexpression of OGT and CXCR3 in 5-azaC treated CD4+ T cells from women relative to men is consistent with demethylation of regulatory regions on their silenced X chromosome. […]

CXCR3 [4] = experiment: CXCR3 protein by immunoblotting and flow cytometry on 5-azaC treated CD4+ T cells; conditions: for CXCR3 MFI: mean±SEM
Protocol: (§6) CD4 ? T cell CXCR3 levels were measured by flow cytometry using antibodies from Santa Cruz Biotechnology. OGT was measured by solubilizing bead-purified CD4 ? T cells, fractionating the lysates by electrophoresis, transferring the proteins to nitrocellulose membranes, then probing with anti-OGT antibodies (Abcam). CBL protein levels were measured by immunoblotting with anti-CBL antibody (BD Biosciences) and approaches similar to OGT. Protein bands were visualized using an ECL chemiluminescence detection system, then scanned and quantified with ImageQuant 5.2 software. Values were normalized to b-actin and levels expressed relative to non-stimulated CD4 ? T cells. (Basu, 2009; Lu, 2007, Gorelik, 2012; herein incorporated by reference in their entireties).
CXCR3 protein levels were similarly compared on 5-azaC treated CD4+ T cells with and without restimulation using immunoblotting and flow cytometry. In contrast to OGT, using untreated and 5-azaC treated CD4+ T cells from male-female pairs, no increase in CXCR3 protein was observed (CXCR3MFI: female 320+91, male 316+108, mean±SEM) despite the increase in CXCR3 mRNA in the women.

OGT [5] = experiment: OGT protein by immunoblotting in 5-azaC treated CD4+ T cells; conditions: CD4+ T cells from women but not men, 72 h
Protocol: as §6
PBMC from N healthy men and women were stimulated with PHA, treated with 5-azaC, and 72 hours later restimulated with PMA and ionomycin as for an additional 6 hours as before. CD4+ T cells were isolated and OGT levels compared by immunoblotting.

X chromosome MicroRNA = experiment: Genome-wide qPCR miRNA expression profiling of 5-azaC treated CD4+ T cells; conditions: 72 hrs; for LET-7f-2 Fold change (5AzaC/No 5Aza): table line 4
Protocol: as §2
Genome-wide qPCR miRNA expression profiling was performed using (System Biosciences (SBI), Cat# RA660A-1) profiler. Briefly, 800 ng totals RNA containing miRNA was converted to complementary DNA with the QuantiMir kit, according to the manufacturer protocol. Real time PCR in 384 well format using miRNA-specific primers was performed using ABI 7900 real-time PCR system at University of Michigan microarray or sequencing core facilities. Resulting data was analyzed by using Human miRNome profiler software provided by SBI.
To identify methylation sensitive […], miRNA expression profiles were compared between 5-AzaC treated CD4+ cells and non-treated controls from healthy men and women. Differentially expressed miRNAs were identified. Then the X chromosome encoded miRNA's increased by 5-azaC in women, compared to men were identified.
Experiments were conducted during the development of embodiments of the present invention to identify X-linked miRNA's increasing more in experimentally demethylated T cells from women than men and also overexpressed in women relative to men with active lupus. The human X chromosome encodes 128 miRNA while the Y chromosome encodes only 15 (Ensembl release 65—December 2011 © WTSI/EBI WTSI/EBI). PBMC from the peripheral blood of healthy men and healthy women ages 23-35 were stimulated with PHA and treated with 5-azaC as before. 72 hrs later CD4+ T cells were purified and miRNA's surveyed using PCR arrays detecting 80 X chromosome and 824 autosomal miRNAs but no Y miRNA's.

OGT regulatory elements = experiment: Methylcytosine affinity purification (MeCAP) of OGT regulatory region in CD4+ T cells; conditions: CD4+ T cells from women but not men
Protocol: as §1, §5

CXCR3 [6] = experiment: CXCR3 mRNA by RT-PCR in 5-azaC treated CD4+ T cells; conditions: 72 hours, restimulated with PMA and ionomycin, more in women than in men
Protocol: as §2, §3, §4

Structure (SMILES): Nc1ncn([C@@H]2O[C@H](CO)[C@@H](O)[C@H]2O)c(=O)n1 [5-azaC]
- methylation of regulatory regions 5′ to the miR-98/Let 7-f2 gene cluster [1]: significantly demethylates
- OGT transcripts (OGT [2]): increases
- methylation of region −1567 to −1067 5′ to the CXCR3 transcription start site [3]: significant decrease
- CXCR3 MFI (CXCR3 [4]; female CD4+ T cells): 320+91
- CXCR3 MFI (CXCR3 [4]; male CD4+ T cells): 316+108
- CXCR3 protein (CXCR3 [4]; untreated and 5-azaC treated CD4+ T cells from male-female pairs): no increase
- OGT protein (OGT [5]): increases
- MIR-98 Fold change (5AzaC/No 5Aza) (X chromosome MicroRNA; Female CD4+ T cells): 1.7 ± 0.2
- MIR-106a Fold change (5AzaC/No 5Aza) (X chromosome MicroRNA; Female CD4+ T cells): 5.2 ± 1.5
- MIR-188(3p) Fold change (5AzaC/No 5Aza) (X chromosome MicroRNA; Female CD4+ T cells): 12.7 ± 3.0
- MIR-421 Fold change (5AzaC/No 5Aza) (X chromosome MicroRNA; Female CD4+ T cells): 17.4 ± 5.0
- MIR-424 Fold change (5AzaC/No 5Aza) (X chromosome MicroRNA; Female CD4+ T cells): 2.2 ± 0.5
- MIR-450a Fold change (5AzaC/No 5Aza) (X chromosome MicroRNA; Female CD4+ T cells): 2.4 ± 0.7
- MIR-450b Fold change (5AzaC/No 5Aza) (X chromosome MicroRNA; Female CD4+ T cells): 14.3 ± 4.4
- MIR-503 Fold change (5AzaC/No 5Aza) (X chromosome MicroRNA; Female CD4+ T cells): 14.3 ± 4.4
- MIR-508(3p) Fold change (5AzaC/No 5Aza) (X chromosome MicroRNA; Female CD4+ T cells): 4.2 ± 1.1
- LET-7f-2 Fold change (5AzaC/No 5Aza) (X chromosome MicroRNA; Female CD4+ T cells): 3.8 ± 1.2
- MIR-98 Fold change (5AzaC/No 5Aza) (X chromosome MicroRNA; Male CD4+ T cells): 1.4 ± 0.2
- MIR-106a Fold change (5AzaC/No 5Aza) (X chromosome MicroRNA; Male CD4+ T cells): 1.1 ± 0.4
- MIR-188(3p) Fold change (5AzaC/No 5Aza) (X chromosome MicroRNA; Male CD4+ T cells): 4.1 ± 2.1
- MIR-421 Fold change (5AzaC/No 5Aza) (X chromosome MicroRNA; Male CD4+ T cells): 7.8 ± 3.7
- MIR-424 Fold change (5AzaC/No 5Aza) (X chromosome MicroRNA; Male CD4+ T cells): 1.1 ± 0.3
- MIR-450a Fold change (5AzaC/No 5Aza) (X chromosome MicroRNA; Male CD4+ T cells): 1.1 ± 0.8
- MIR-450b Fold change (5AzaC/No 5Aza) (X chromosome MicroRNA; Male CD4+ T cells): 3.8 ± 1.8
- MIR-503 Fold change (5AzaC/No 5Aza) (X chromosome MicroRNA; Male CD4+ T cells): 3.8 ± 1.8
- MIR-508(3p) Fold change (5AzaC/No 5Aza) (X chromosome MicroRNA; Male CD4+ T cells): 1.1 ± 1.3
- LET-7f-2 Fold change (5AzaC/No 5Aza) (X chromosome MicroRNA; Male CD4+ T cells): 0.5 ± 0.2
- methylation of region −412 to −88 5′ to OGT transcription start site (OGT regulatory elements): significant demethylation
- CXCR3 transcripts (CXCR3 [6]): increases
